Experimental data published in patent US9234000B2, “Benzylamine derivatives as inhibitors of plasma kallikrein” (KalVista Pharmaceuticals Limited, priority 2011, dated 2016).

Assays:
Human KLK1 = Human KLK1 (Homo sapiens (Human), UniProt P06870); assay: Determination of the IC50 for KLK1; assay type: biochemical; details: Human KLK1, 37° C., substrate H-DVal-Leu-Arg-AFC; Table 13
Procedure: Determination of the IC50 for KLK1
(§1) KLK1 inhibitory activity in vitro was determined using standard published methods (see e.g. Johansen et al., Int. J. Tiss. Reac. 1986, 8, 185; Shori et al., Biochem. Pharmacol., 1992, 43, 1209; Stürzebecher et al., Biol. Chem. Hoppe-Seyler, 1992, 373, 1025). Human KLK1 (Callbiochem) was incubated at 37° C. with the fluorogenic substrate H-DVal-Leu-Arg-AFC and various concentrations of the test compound. Residual enzyme activity (initial rate of reaction) was determined by measuring the change in optical absorbance at 410 nm and the IC50 value for the test compound was determined.

Human plasma kallikrein = Human plasma kallikrein (Homo sapiens (Human), UniProt P03952); assay: Determination of the IC50 for plasma kallikrein; assay type: biochemical; details: 37° C., substrate H-DPro-Phe-Arg-AFC, read-out: IC50 (human PKal)
Chain of Human plasma kallikrein (P03952 391-638): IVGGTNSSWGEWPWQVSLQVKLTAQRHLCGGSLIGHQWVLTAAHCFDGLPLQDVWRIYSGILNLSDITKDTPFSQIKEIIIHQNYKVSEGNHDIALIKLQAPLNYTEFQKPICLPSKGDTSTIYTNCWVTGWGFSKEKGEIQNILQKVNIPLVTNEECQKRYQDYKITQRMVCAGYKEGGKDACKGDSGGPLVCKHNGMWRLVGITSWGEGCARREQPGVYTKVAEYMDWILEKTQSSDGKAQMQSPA
Chain of Human plasma kallikrein (P03952 20-390 partner): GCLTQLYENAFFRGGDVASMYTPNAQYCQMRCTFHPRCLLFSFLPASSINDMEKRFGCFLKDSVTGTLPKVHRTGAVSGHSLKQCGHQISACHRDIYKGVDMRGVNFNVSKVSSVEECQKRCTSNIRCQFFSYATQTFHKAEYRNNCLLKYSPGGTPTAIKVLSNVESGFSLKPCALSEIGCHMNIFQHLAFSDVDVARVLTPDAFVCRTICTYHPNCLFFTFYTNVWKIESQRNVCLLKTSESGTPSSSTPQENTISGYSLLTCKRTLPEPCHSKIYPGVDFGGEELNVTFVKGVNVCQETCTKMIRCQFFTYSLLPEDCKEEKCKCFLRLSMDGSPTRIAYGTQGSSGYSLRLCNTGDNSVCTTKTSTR
Procedure: Determination of the IC50 for Plasma Kallikrein
as §1, with “Plasma kallikrein” for “KLK1”, “Stiirzebecher” for “Stürzebecher”, “plasma kallikrein (Protogen)” for “KLK1 (Callbiochem)”, “H-DPro-Phe-Arg-AFC” for “H-DVal-Leu-Arg-AFC”

Chain of Human KLK1 (P06870 25-262): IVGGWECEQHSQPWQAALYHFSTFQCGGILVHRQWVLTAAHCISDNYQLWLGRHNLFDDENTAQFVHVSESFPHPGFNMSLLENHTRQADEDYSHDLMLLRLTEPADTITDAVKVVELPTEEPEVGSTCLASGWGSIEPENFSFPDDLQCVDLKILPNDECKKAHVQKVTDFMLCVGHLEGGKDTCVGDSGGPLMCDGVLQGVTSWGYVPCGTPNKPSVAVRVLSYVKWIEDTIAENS

Structure (SMILES)	IC50 (Human KLK1)	IC50 (Human plasma kallikrein)
CCOc1ccc(C[C@@H](NC(=O)c2ccc3nc(C)ccc3c2)C(=O)N[C@@H](Cc2ccccc2)C(=O)NCc2ccc(CN)cc2)cc1 [Example 114, 2-Methyl-quinoline-6-carboxylic acid [(R)-1-[(S)-1-(4-aminomethyl-benzylcarbamoyl)-2-phenyl-ethylcarbamoyl]-2-(4-ethoxy-phenyl)-ethyl]-amide]	> 10000 nM	427 nM
CCOc1ccc(C[C@@H](NC(=O)c2cnc3cc(Cl)ccc3c2)C(=O)N[C@@H](Cc2ccccc2)C(=O)NCc2ccc(CN)cc2)cc1 [Example 115, 7-Chloro-quinoline-3-carboxylic acid [(R)-1-[(S)-1-(4-aminomethyl-benzylcarbamoyl)-2-phenyl-ethylcarbamoyl]-2-(4-ethoxy-phenyl)-ethyl]-amide]	9000 nM	417 nM
CCOc1ccc(C[C@@H](NC(=O)c2scnc2C)C(=O)N[C@@H](Cc2ccccc2)C(=O)NCc2ccc(CN)cc2)cc1 [Example 117, 4-Methyl-thiazole-5-carboxylic acid[(R)-1-[(S)-1-(4-aminomethyl-benzylcarbamoyl)-2-phenyl-ethylcarbamoyl]-2-(4-ethoxy-phenyl)-ethyl]-amide]	6100 nM	48 nM
CCOc1ccc(C[C@@H](NC(=O)c2ccco2)C(=O)N[C@@H](Cc2ccccc2)C(=O)NCc2ccc(CN)cc2)cc1 [Example 118, Furan-2-carboxylic acid [(R)-1-[(S)-1-(4-aminomethyl-benzylcarbamoyl)-2-phenyl-ethylcarbamoyl]-2-(4-ethoxy-phenyl)-ethyl]-amide]	> 10000 nM	61 nM
CCOc1ccc(C[C@@H](NC(=O)c2cccc(OC)n2)C(=O)N[C@@H](Cc2ccccc2)C(=O)NCc2ccc(CN)cc2)cc1 [Example 120, 6-Methoxy-pyridine-2-carboxylic acid [(R)-1-[(S)-1-(4-aminomethyl-benzylcarbamoyl)-2-phenyl-ethylcarbamoyl]-2-(4-ethoxy-phenyl)-ethyl]-amide]	> 10000 nM	540 nM
CCOc1ccc(C[C@@H](NC(=O)c2cncc(OC)c2)C(=O)N[C@@H](Cc2ccccc2)C(=O)NCc2ccc(CN)cc2)cc1 [Example 121, N-[(R)-1-[(S)-1-(4-Aminomethyl-benzylcarbamoyl)-2-phenyl-ethylcarbamoyl]-2-(4-ethoxy-phenyl)-ethyl]-5-methoxy-nicotinamide]	> 10000 nM	310 nM
CCOc1ccc(C[C@@H](NC(=O)c2sccc2OC)C(=O)N[C@@H](Cc2ccccc2)C(=O)NCc2ccc(CN)cc2)cc1 [Example 122, 3-Methoxy-thiophene-2-carboxylic acid [(R)-1-[(S)-1-(4-aminomethyl-benzylcarbamoyl)-2-phenyl-ethylcarbamoyl]-2-(4-ethoxy-phenyl)-ethyl]-amide]	4800 nM	519 nM
CCOc1ccc(C[C@@H](NC(=O)c2ccnc(OC)c2)C(=O)N[C@@H](Cc2ccccc2)C(=O)NCc2ccc(CN)cc2)cc1 [Example 123, N-[(R)-1-[(S)-1-(4-Aminomethyl-benzylcarbamoyl)-2-phenyl-ethylcarbamoyl]-2-(4-ethoxy-phenyl)-ethyl]-2-methoxy-isonicotinamide]	> 10000 nM	214 nM
NCc1ccc(CNC(=O)[C@H](Cc2ccccc2)NC(=O)[C@@H](CC2CCCCC2)NC(=O)c2ccccc2)cc1 [Example 126, N-{(R)-1-[(S)-1-(4-Aminomethyl-benzylcarbamoyl)-2-phenyl-ethylcarbamoyl]-2-cyclohexyl-ethyl}-benzamide]	> 10000 nM	4010 nM
NCc1ccc(CNC(=O)[C@H](Cc2ccccc2)NC(=O)[C@@H](Cc2ccc(Cl)cc2)NC(=O)c2ccccc2)cc1 [Example 127, N-[(R)-1-[(S)-1-(4-Aminomethyl-benzylcarbamoyl)-2-phenyl-ethylcarbamoyl]-2-(4-chloro-phenyl)-ethyl]-benzamide]	> 10000 nM	521 nM
NCc1ccc(CNC(=O)[C@H](Cc2ccccc2)NC(=O)[C@@H](Cc2ccc(OCc3ccc(Cl)cc3)cc2)NC(=O)c2ccccc2)cc1 [Example 128, N-{(R)-1-[(S)-1-(4-Aminomethyl-benzylcarbamoyl)-2-phenyl-ethylcarbamoyl]-2-[4-(4-chloro-benzyloxy)-phenyl]-ethyl}-benzamide]	> 10000 nM	2010 nM
NCc1ccc(CNC(=O)[C@H](Cc2ccccc2)NC(=O)[C@@H](Cc2ccc(O)cc2)NC(=O)c2ccccc2)cc1 [Example 129, N-[(R)-1-[(S)-1-(4-Aminomethyl-benzylcarbamoyl)-2-phenyl-ethylcarbamoyl]-2-(4-hydroxy-phenyl)-ethyl]-benzamide]	> 10000 nM	10000 nM
NCc1ccc(CNC(=O)[C@H](Cc2ccccc2)NC(=O)[C@@H](Cc2ccc(OCc3ccc(F)cc3)cc2)NC(=O)c2ccccc2)cc1 [Example 130, N-{(R)-1-[(S)-1-(4-Aminomethyl-benzylcarbamoyl)-2-phenyl-ethylcarbamoyl]-2-[4-(4-fluoro-benzyloxy)-phenyl]-ethyl}-benzamide]	> 10000 nM	2490 nM
CC(C)C[C@@H](NC(=O)c1ccccc1)C(=O)N[C@@H](Cc1ccccc1)C(=O)NCc1ccc(CN)cc1 [Example 133, N-{(R)-1-[(S)-1-(4-Aminomethyl-benzylcarbamoyl)-2-phenyl-ethylcarbamoyl]-3-methyl-butyl}-benzamide]	> 10000 nM	10000 nM
NCc1ccc(CNC(=O)[C@H](Cc2ccccc2)NC(=O)[C@@H](Cc2ccc(OCc3c(Cl)cccc3Cl)cc2)NC(=O)c2ccccc2)cc1 [Example 134, N-{(R)-1-[(S)-1-(4-Aminomethyl-benzylcarbamoyl)-2-phenyl-ethylcarbamoyl]-2-[4-(2,6-dichloro-benzyloxy)-phenyl]-ethyl}-benzamide]	> 10000 nM	10000 nM
Cc1ccc(C[C@@H](NC(=O)c2ccccc2)C(=O)N[C@@H](Cc2ccccc2)C(=O)NCc2ccc(CN)cc2)cc1 [Example 135, N-{(R)-1-[(S)-1-(4-Aminomethyl-benzylcarbamoyl)-2-phenyl-ethylcarbamoyl]-2-p-tolyl-ethyl}-benzamide]	> 10000 nM	424 nM
NCc1ccc(CNC(=O)[C@H](Cc2ccccc2)NC(=O)[C@@H](Cc2ccc(OCc3cccc(F)c3)cc2)NC(=O)c2ccccc2)cc1 [Example 136, N-{(R)-1-[(S)-1-(4-Aminomethyl-benzylcarbamoyl)-2-phenyl-ethylcarbamoyl]-2-[4-(3-fluoro-benzyloxy)-phenyl]-ethyl}-benzamide]	> 10000 nM	1020 nM
COc1ccc(C[C@@H](NC(=O)c2ccccc2)C(=O)N[C@@H](Cc2ccccc2)C(=O)NCc2ccc(CN)cc2)cn1 [Example 137, N-[(R)-1-[(S)-1-(4-Aminomethyl-benzylcarbamoyl)-2-phenyl-ethylcarbamoyl]-2-(6-methoxy-pyridin-3-yl)-ethyl]-benzamide]	> 10000 nM	7540 nM
COc1ccc(C[C@@H](NC(=O)c2ccccc2)C(=O)N[C@@H](Cc2ccccc2)C(=O)NCc2ccc(CN)cc2)cc1 [Example 138, N-[(R)-1-[(S)-1-(4-Aminomethyl-benzylcarbamoyl)-2-phenyl-ethylcarbamoyl]-2-(4-methoxy-phenyl)-ethyl]-benzamide]	> 10000 nM	310 nM
NCc1ccc(CNC(=O)[C@H](Cc2ccccc2)NC(=O)[C@@H](Cc2ccccc2)NC(=O)c2ccccc2)cc1 [Example 139, N-{(R)-1-[(S)-1-(4-Aminomethyl-benzylcarbamoyl)-2-phenyl-ethylcarbamoyl]-2-phenyl-ethyl}-benzamide]	> 10000 nM	1140 nM
CCOc1ccc(C[C@@H](NC(=O)c2ccccc2)C(=O)N[C@@H](Cc2ccc(Cl)cc2)C(=O)NCc2ccc(CN)cc2)cc1 [Example 142, N-[(R)-1-[(S)-1-(4-Aminomethyl-benzylcarbamoyl)-2-(4-chloro-phenyl)-ethylcarbamoyl]-2-(4-ethoxy-phenyl)-ethyl]-benzamide]	> 10000 nM	96 nM
CCOc1ccc(C[C@@H](NC(=O)c2ccccc2)C(=O)N[C@@H](Cc2cccc(C(F)(F)F)c2)C(=O)NCc2ccc(CN)cc2)cc1 [Example 144, N-[(R)-1-[(S)-1-(4-Aminomethyl-benzylcarbamoyl)-2-(3-trifluoromethyl-phenyl)-ethylcarbamoyl]-2-(4-ethoxy-phenyl)-ethyl]-benzamide]	> 10000 nM	340 nM
CCOc1ccc(C[C@@H](NC(=O)c2ccccc2)C(=O)N[C@@H](Cc2ccc(OC)cc2)C(=O)NCc2ccc(CN)cc2)cc1 [Example 146, N-[(R)-1-[(S)-1-(4-Aminomethyl-benzylcarbamoyl)-2-(4-methoxy-phenyl)-ethylcarbamoyl]-2-(4-ethoxy-phenyl)-ethyl]-benzamide]	> 10000 nM	232 nM
CCOc1ccc(C[C@@H](NC(=O)c2ccccc2)C(=O)N[C@@H](Cc2ccncc2)C(=O)NCc2ccc(CN)cc2)cc1 [Example 147, N-[(R)-1-[(S)-1-(4-Aminomethyl-benzylcarbamoyl)-2-pyridin-4-yl-ethylcarbamoyl]-2-(4-ethoxy-phenyl)-ethyl]-benzamide]	> 10000 nM	284 nM
